Laboratory results taken from patent publication US20240043818A1, “Engineered Cells for Increased Collagen Production” (Northeastern University, priority 2020, published 2024).

Tests used:
human dermal fibroblasts = settings: cited from earlier work
[1] = tested on: baboon liver myofibroblasts; settings: cited from earlier work
corneal fibroblasts = experiment: Media additive screening (Phase 1) and full factorial DOE (Phase 2), collagen production by SirCol; type: cell-based; settings: Phase 1 screening
Procedure: Based on a weighted scoring (Table 13), the seven best additives were selected and were added to the fibroblast media separately in a Phase 1 screening study using concentrations presented in Table 14. […] For this study a three-level design was chosen in order to determine a maxima. This phase of the experiment determined which additives have a statistically significant effect on collagen production and what concentration of each additive has the highest positive impact.
The seven additives also allowed for minimizing the number of plates and maximizing the number of used wells. […] In phase 1 of testing 7 media additives were tested at 3 concentrations with a sample size of 4 for each condition. Additives and concentrations used were determined by the prior research described above. Collagen amount per well was quantified, but cell counts were not performed. Collagen produced per cell was estimated based on the number of cells expected per well. Some groups fell below the SirCol standard curve range of 1-50 ug. These values were represented as 1.00 ug/100 uL and were assigned the lowest rating for efficacy in the resulting trade study.
For the three additives that advanced the highest ranking of each additive was used as the DOE centerpoint. Due to a lack of available stock, ACE low was substituted for ACE medium.
In phase 2 the top performing media additives were fed into a full factorial DOE. The concentrations used were determined by a variety of factors including a trade study, remaining laboratory supplies, and finally the lower cost associated with a lower concentration in a near-tie situation. A near-tie situation was defined by the group as concentrations of the same chemical that scored within 1% total score. […] For acetaldehyde, due to a stock issue the low concentration at 0.2 mM was chosen. For the 100% concentration limit needed to complete construction of the full-factorial DOE plan, each of these values was doubled, which corresponds to the medium conditions from phase 1.

[2] = tested on: cell types including bovine, mouse, and human; settings: cited from earlier work
fibroblast migration = settings: dose-dependent, 0.25 and 0.5 mM; cited from earlier work
any cell type = settings: cited from earlier work
collagen production = settings: cited from earlier work
[3] = tested on: myofibroblasts and fibroblasts; settings: 50 mM; cited from earlier work
human lung fibroblasts = settings: 100 ng/mL; cited from earlier work
human chondrocytes = settings: cited from earlier work
rat liver M cells = settings: concentration in media as low as 1 ng/ml; cited from earlier work
[4] = added to the culture media in concentrations up to 300 μM

Molecule: CC=O [ACE, Acetaldehyde]
- levels of collagen produced (human dermal fibroblasts; [4]): increase the levels of collagen
- levels of collagen produced [1, 4]: increase the levels of collagen
- collagen production versus control, single additive (corneal fibroblasts): higher collagen production than the control

Molecule: O=C1O[C@H]([C@@H](O)CO)C(O)=C1O [ASC, Ascorbic acid]
- collagen production versus control, single additive (corneal fibroblasts): higher collagen production than the control
- production of collagen [2]: beneficial

Molecule: N#CCCN [BAPN, β-aminopropionitrile]
- collagen production versus control, single additive (corneal fibroblasts): higher collagen production than the control
- fibroblast migration (fibroblast migration): inhibited fibroblast migration
- adverse effects on cell viability, collagen synthesis, or non collagen protein synthesis (any cell type): No research with any cell type has shown adverse effects

Molecule: N[C@@H](CCC(=O)O)C(=O)O [Glutamate]
- increase of collagen production from the control (human dermal fibroblasts; glutamate-supplemented media): 400%

Molecule: CC(O)C(=O)O (stereo not shown) [Lactate]
- collagen production (human dermal fibroblasts; 40 mM): decrease collagen production
- collagen production ([1]; 5 mM added to media): statistically significant increase

Molecule: O=C(O)[C@@H]1CCCN1 [Proline]
- maximum increase in collagen production compared to the control value (human dermal fibroblasts; 5-10 mM in media): 200%

Molecule: Cn1c(=O)c2c(ncn2C)n(C)c1=O [caffeine]
- effect on collagen production (collagen production; concentrations in media as little as 1-5 mM): negative effect

Molecule: CCO [ethanol]
- effect on the level of collagen production [3]: no direct effect

Molecule: NC(=O)CC[C@H](N)C(=O)O [glutamine]
- maximum benefit for the production of collagen, % of the control (human dermal fibroblasts; at 250 μM): ~300%

Molecule: O=C(O)C1CCC=N1 (stereo not shown) [pyrroline-5-carboxylate]
- optimal concentration for collagen production (human dermal fibroblasts): 1 mM
- time at which the effect on collagen production can be seen (human dermal fibroblasts): 6 h
- maximum increase of collagen production, % of the control value (human dermal fibroblasts; optimal concentration of 1 mM): 260%

Molecule: IGF-1: Insulin-like Growth Factor 1
- correlation between level in media and production of collagen (human dermal fibroblasts; manipulation of rat serum applied to media): positive correlation
- maximum increase of collagen production from control (human lung fibroblasts): 300%

Molecule: IL-1p: Interleukin type 1p as printed, glycoprotein associated with immune response
- lowest concentration needed for an observable, positive effect on collagen production (human chondrocytes): 2.5 µM

Molecule: TGF-β
- concentration for maximum efficacy (human dermal fibroblasts): 12.5 ng/mL

Molecule: TGF-β1: Transforming Growth Factor Beta 1
- collagen production versus control (rat liver M cells): unquantified increase

B1: IL-4: Interleukin, glycoprotein associated with immune response (protein, UniProt P05112 25-153, looked up)
Interleukin-4: HKCDITLQEIIKTLNSLTEQKTLCTELTVTDIFAASKNTTEKETFCRAATVLRQFYSHHEKDTRCLGATAQQFHRHKQLIRFLKRLDRNLWGLAGLNSCPVKEANQSTLENFLERLKTIMREKYSKCSS
- maximum positive effect on collagen production, increase from control (collagen production): 250%

B2: IL-10: Interleukin, glycoprotein associated with immune response (protein, UniProt P22301 19-178, looked up)
Interleukin-10: SPGQGTQSENSCTHFPGNLPNMLRDLRDAFSRVKTFFQMKDQLDNLLLKESLLEDFKGYLGCQALSEMIQFYLEEVMPQAENQDPDIKAHVNSLGENLKTLRLRLRRCHRFLPCENKSKAVEQVKNAFNKLQEKGIYKAMSEFDIFINYIEAYMTMKIRN
- effect on level of collagen production (collagen production): reduce the level of collagen production
